According to BindingDB's records for doi:10.1021/acs.jmedchem.6b00705 (Leiden Institute of Chemistry, 2016):

Tests used:
[1] = molecular target: Proteasome subunit beta type-2 (Homo sapiens, UniProt P49721); test: Inhibition of catalytic activity of constitutive proteasome 20s subunit beta2 in human Raji cells incubated for 1 hr by BODIPY(FL)-LU-112 probe based competitive activity based protein profiling assay
[2] = Inhibition of catalytic activity of immunoproteasome 20s subunit beta2 in human Raji cells incubated for 1 hr by BODIPY(FL)-LU-112 probe based competitive activity based protein profiling assay

| SMILES | IC50 [1] [nM] | IC50 [2] [nM] |
| --- | --- | --- |
| CC(C)C[C@H](NC(=O)[C@H](Cc1ccccc1)NC(=O)[C@H](Cc1ccccc1)NC(=O)[C@H](Cc1ccccc1)N=[N+]=[N-])C(=O)[C@@]1(C)CO1 [(S)-2-azido-N-((S)-1-((S)-1-((S)-4-methyl-1-((R)-2-methyloxiran-2-yl)-1-oxopentan-2-ylamino)-1-oxo-3-phenylpropan-2-ylamino)-1-oxo-3-phenylpropan-2-yl)-3-phenylpropanamide] | 66 | – |
| C[C@H](NC(=O)[C@H](Cc1ccccc1)NC(=O)[C@H](C[C@H]1CC[C@@H](c2ccccc2)CC1)NC(=O)[C@H](Cc1ccccc1)N=[N+]=[N-])C(=O)[C@@]1(C)CO1 | > 100000 | 300 |
| CC(C)C[C@H](NC(=O)CN1CCOCC1)C(=O)N[C@@H](C[C@H]1CC[C@H](C2CCCCC2)CC1)C(=O)N[C@@H](Cc1ccccc1)C(=O)N[C@@H](C)C(=O)[C@@]1(C)CO1 | > 100000 | > 100000 |
| C[C@H](NC(=O)[C@H](Cc1ccccc1)NC(=O)[C@H](C[C@H]1CC[C@H](c2ccccc2)CC1)NC(=O)[C@H](Cc1ccccc1)N=[N+]=[N-])C(=O)[C@@]1(C)CO1 | > 100000 | > 100000 |
| CC(C)C[C@H](NC(=O)[C@H](Cc1ccccc1)NC(=O)[C@H](CC1CCC(C)CC1)NC(=O)[C@H](Cc1ccccc1)N=[N+]=[N-])C(=O)[C@@]1(C)CO1 (some centres not stated) | 46 | – |
| CC(C)C[C@H](NC(=O)[C@H](Cc1ccccc1)NC(=O)[C@H](CCc1ccccc1)NC(=O)[C@H](Cc1ccccc1)N=[N+]=[N-])C(=O)[C@@]1(C)CO1 | 60 | – |
| CC1=C(C(=O)N[C@H](C)C(=O)N[C@@H](Cc2c[nH]c3ccccc23)C(=O)N[C@@H](CC2CCCCC2)C(=O)[C@@]2(C)CO2)Cc2ccccc21 | > 1000 | > 1000 |
| COc1ccc(C[C@H](NC(=O)[C@H](Cc2ccccc2)N=[N+]=[N-])C(=O)N[C@@H](Cc2ccccc2)C(=O)N[C@@H](CC(C)C)C(=O)[C@@]2(C)CO2)cc1 | 110 | – |
